Laboratory results: patent US20250163066A1, “PROTACs of MALT1” (TEGID THERAPEUTICS, INC., priority 2022, published 2025)

Assays:
MALT1 [1] = biological target: T1, MALT1 (Homo sapiens (Human), UniProt Q9UDY8); assay: MALT1 enzymatic activity inhibition (fluorescence, Ac-LRSR-AMC substrate); format: biochemical; conditions: recombinant MALT1 1.5 ng/μl, Ac-LRSR-AMC 1 μM
In short: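 Recombinant human MALT1 (1.5 ng/μl final) preincubated 10 min at rt with compounds in 50 mM HEPES pH 7.2-7.4, 100 mM NaCl, 900 mM sodium citrate, 10 mM DTT; 1 μM Ac-LRSR-AMC then added. AMC fluorescence read at start and after 30 min 37 °C plus 30 min rt; difference gives signal, % inhibition fitted to IC50.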

MALT1 [2] = biological target: T1, MALT1; assay: MALT1 degradation in JeKo-1 cells (capillary Western blotting); format: cell-based; conditions: 48 h incubation, read-out: EC50 for MALT1 degradation
Description: JeKo-1 cells (ATCC, USA) were cultured in RPMI 1640 supplemented with 10% FBS at 37° C., 5% CO2 in a humidified cell culture incubator. 1 ml of cells (1*10^6 cells per well) was transferred to each well of a 24-well plate (Greiner, #662160). Then 40 μl/well 25× compound (or DMSO) were added. Cells were incubated with compound in a humidified cell culture incubator for 48 h. At the end of incubation, cell suspension was transferred from wells into 2 ml tubes (Greiner, #623201), centrifuged at 300 g for 5 min and the supernatant was discarded. Then cell pellets were washed with cooled PBS. Cell lysates were prepared by adding 40 μl of RIPA lysis buffer (ProteinSimple, #040-483) to the cell pellet. […] Next, protein concentration in cell lysates was determined by Pierce™ Coomassie (Bradford) Protein Assay Kit (Thermo Scientific, #23200) according to manufacturer's instructions.
Levels of MALT1, Bcl10 and CYLD proteins in prepared cell lysates were assessed in capillary Western blotting system Jess (JS-3030, ProteinSimple) using 12-230 kDa Separation Module (ProteinSimple #SM-W004), Anti-Mouse Detection Module (ProteinSimple #DM-002) and Anti-Rabbit Detection Module (ProteinSimple #DM-001) according to manufacturer's instructions. […] Beta-actin was used as a loading control detected by anti-beta-actin primary antibodies (RnD Systems, #MAB8929) at 1:100 dilution.

[3] = tested on: IL-2 MALT1-dependent release in Jurkat cells; assay: cells; format: cell-based; conditions: Homo sapiens; for CC50: Jurkat, 24 h, read-out: CC50 (IL-2 MALT1-dependent release inhibition)
In short: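 Jurkat cells (100,000/well, RPMI 1640 with 10% FBS, 37 °C, 5% CO2) were preincubated with compound or DMSO for 0.5-1 h, in duplicate. Stimulation used anti-CD3 (HIT3a) plus anti-CD28 antibodies for 24 h. IL-2 in supernatants was then measured by ELISA.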

T1 sequence (Q9UDY8 whole entry): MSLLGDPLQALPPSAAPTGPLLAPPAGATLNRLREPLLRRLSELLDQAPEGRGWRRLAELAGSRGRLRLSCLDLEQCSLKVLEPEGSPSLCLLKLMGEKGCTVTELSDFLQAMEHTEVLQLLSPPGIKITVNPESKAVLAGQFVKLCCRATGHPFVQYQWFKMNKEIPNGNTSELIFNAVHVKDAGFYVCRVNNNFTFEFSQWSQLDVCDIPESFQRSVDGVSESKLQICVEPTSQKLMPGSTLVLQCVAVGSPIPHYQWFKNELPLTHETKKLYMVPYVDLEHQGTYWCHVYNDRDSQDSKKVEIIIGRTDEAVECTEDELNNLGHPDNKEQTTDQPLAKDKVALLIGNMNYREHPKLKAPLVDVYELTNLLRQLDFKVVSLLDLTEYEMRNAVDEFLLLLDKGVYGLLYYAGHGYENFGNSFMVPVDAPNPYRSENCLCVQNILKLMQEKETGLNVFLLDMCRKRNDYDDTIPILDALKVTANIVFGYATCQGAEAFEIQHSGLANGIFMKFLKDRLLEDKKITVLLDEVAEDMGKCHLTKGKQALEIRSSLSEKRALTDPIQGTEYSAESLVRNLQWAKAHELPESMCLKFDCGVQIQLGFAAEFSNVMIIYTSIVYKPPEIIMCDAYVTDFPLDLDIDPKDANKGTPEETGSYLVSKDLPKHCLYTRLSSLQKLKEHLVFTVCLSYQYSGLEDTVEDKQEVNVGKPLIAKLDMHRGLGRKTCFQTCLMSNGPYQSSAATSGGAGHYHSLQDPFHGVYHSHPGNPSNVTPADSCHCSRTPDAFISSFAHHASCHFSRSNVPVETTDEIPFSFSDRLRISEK

EC50 (MALT1 [1]) | DC50 (MALT1 [2]) | EC50 ([3]; Jurkat cells stimulated with antiCD3/antiCD28 for 24 h, IL-2 ELISA, read-out: EC50, IL-2 MALT1-dependent release inhibition) | SMILES | CC50 [3]
≤ 0.2 µM | 85 nM | 500 to 1000 nM | Cc1cc(NC(=O)Nc2cnc3ccnn3c2C2CCCO2)cnc1-c1noc(CCCCCC(=O)N2CCN(c3ccc4c(c3)CN(C3CCC(=O)NC3=O)C4=O)CC2)n1 (stereo not drawn) [Compound 2, 1-[6-[5-[6-[4-[2-(2,6-dioxo-3-piperidyl)-1-oxo-isoindolin-5-yl]piperazin-1-yl]-6-oxo-hexyl]-1,2,4-oxadiazol-3-yl]-5-methyl-3-pyridyl]-3-(7-tetrahydrofuran-2-ylpyrazolo[1,5-a]pyrimidin-6-yl)urea] | 
≤ 0.2 µM |  |  | Cc1cc(NC(=O)Nc2cnc3ccnn3c2C2CCCCC2)cnc1-c1noc(CCCCCCN2CCN(c3ccc4c(c3)CN(C3CCC(=O)NC3=O)C4=O)CC2)n1 (stereo not drawn) [Compound 122, 1-(7-cyclohexylpyrazolo[1,5-a]pyrimidin-6-yl)-3-[6-[5-[6-[4-[2-(2,6-dioxo-3-piperidyl)-1-oxo-isoindolin-5-yl]piperazin-1-yl]hexyl]-1,2,4-oxadiazol-3-yl]-5-methyl-3-pyridyl]urea] | < 500 nM
≤ 0.2 µM |  |  | Cc1cc(NC(=O)Nc2cnc3ccnn3c2C2CCCCC2)cnc1-c1noc(CCCC(=O)Nc2ccc3c(c2)CN(C2CCC(=O)NC2=O)C3=O)n1 (stereo not drawn) [Compound 123, 4-[3-[5-[(7-cyclohexylpyrazolo[1,5-a]pyrimidin-6-yl)carbamoylamino]-3-methyl-2-pyridyl]-1,2,4-oxadiazol-5-yl]-N-[2-(2,6-dioxo-3-piperidyl)-1-oxo-isoindolin-5-yl]butanamide] | < 500 nM
≤ 0.2 µM |  |  | Cc1cc(NC(=O)Nc2cnc3ccnn3c2C2CCCCC2)cnc1-c1noc(CCCCC(=O)N2CCN(c3ccc4c(c3)CN(C3CCC(=O)NC3=O)C4=O)CC2)n1 (stereo not drawn) [Compound 124, 1-(7-cyclohexylpyrazolo[1,5-a]pyrimidin-6-yl)-3-[6-[5-[5-[4-[2-(2,6-dioxo-3-piperidyl)-1-oxo-isoindolin-5-yl]piperazin-1-yl]-5-oxo-pentyl]-1,2,4-oxadiazol-3-yl]-5-methyl-3-pyridyl]urea] | 1000 to 5000 nM
